Values quoted from earlier work, collected in US6750247B2, “Sponge-derived terpenoids and methods of use” (Galileo Laboratories, Inc., priority 2001, dated 2004).

Target: T1, lipoxygenase (Homo sapiens, UniProt P09917)
T1 sequence (P09917 1-674): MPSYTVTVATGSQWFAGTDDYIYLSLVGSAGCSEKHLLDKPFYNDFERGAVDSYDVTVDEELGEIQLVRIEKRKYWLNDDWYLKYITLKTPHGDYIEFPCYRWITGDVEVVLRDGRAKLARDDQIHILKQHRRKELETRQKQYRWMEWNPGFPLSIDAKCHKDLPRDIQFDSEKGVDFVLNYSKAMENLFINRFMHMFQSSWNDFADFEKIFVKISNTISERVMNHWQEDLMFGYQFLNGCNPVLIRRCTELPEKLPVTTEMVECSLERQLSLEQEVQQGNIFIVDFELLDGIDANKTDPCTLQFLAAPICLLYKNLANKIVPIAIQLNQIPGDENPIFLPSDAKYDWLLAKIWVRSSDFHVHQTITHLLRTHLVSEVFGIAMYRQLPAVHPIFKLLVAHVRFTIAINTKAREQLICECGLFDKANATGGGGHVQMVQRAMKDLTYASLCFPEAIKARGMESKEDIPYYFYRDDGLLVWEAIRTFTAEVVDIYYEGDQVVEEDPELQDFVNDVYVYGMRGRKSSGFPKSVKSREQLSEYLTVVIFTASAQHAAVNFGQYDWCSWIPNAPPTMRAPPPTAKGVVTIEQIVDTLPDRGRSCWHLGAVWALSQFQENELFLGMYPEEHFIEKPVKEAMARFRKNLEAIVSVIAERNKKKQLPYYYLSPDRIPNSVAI
Conditions: Cabre et al., Inflamm. Res. 1996; cited from earlier work

## CC1=C(CC/C(C)=C/CCC2=CC[C@H](C3=CC(=O)O[C@H]3O)O[C@H]2O)C(C)(C)CCC1 [manoalide]
  lipoxygenase inhibitory properties: no lipoxygenase inhibitory properties
